The record followed here is patent US9684238B2, “Fluorene-type compound, photopolymerization initiator comprising said fluorene-type compound, and photosensitive composition containing said photopolymerization initiator” (TOKYO OHKA KOGYO CO., LTD., priority 2012, dated 2017).

Data set [1] in a line: Decomposition point by thermal analysis (TG-DTA). The format is physicochemical. The note with it: 5.0 mg. As to the method: The compounds 1, 2, 4, 6, 8, 9, 11, 12, 13, 15, 16, D-1, D-3, D-4, D-7, D-8, D-9, D-12, D-14, D-15, D-20, C-1, and C-2 were each subjected to measurement with a thermal analysis apparatus (TG-DTA) (manufactured by Rigaku Corporation, trade name: “Thermo Plus EVO TG 8120”) by using 5.0 mg thereof.

Data set [2] can be described thus: Solubility in PGME, PGMEA and ethyl lactate. The format is physicochemical.
Data set [3] is described as follows: Evaluation 1: 20-μm pattern line width of transparent photosensitive composition. The note with it: transparent composition, initiator 0.4 mmol.
Data set [4] in a line: Evaluation 3: 20-μm pattern line width of black photosensitive composition. To be noted: black composition (carbon black, cardo resin), initiator 0.4 mmol. The essentials: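 Composition spin-coated on glass to 1.0 μm dry thickness, dried 90 °C for 10 min, exposed at 10–80 mJ/cm^2 via high-pressure mercury lamp through 20 μm negative mask, developed in 0.1 wt % TMAH, rinsed. Line width of remaining cured film measured; larger width means higher sensitivity.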

Data set [5] can be described thus: Transparency: coloring of the photopolymerization initiator before and after exposure. The data set is classed as physicochemical. The note with it: 40 g/L in tetrahydrofuran; 365 nm UV, 850 to 2,550 mJ/cm^2; compared with compound C-1. As to the method: An influence on the coloring of a photopolymerization initiator after its exposure was confirmed because the photopolymerization initiator was required to have transparency. Specifically, as described below, the degrees of coloring (color change) of the photopolymerization initiator itself before and after its exposure were evaluated by measuring its absorbance. A 40 g/L solution of the compound 4 of Synthesis Example 4 in tetrahydrofuran was prepared, and the solution was loaded into a lidded UV cell made of quartz (12.5×12.5×58 mm) having an optical path length of 1 cm. The absorption spectrum of the solution before its exposure was measured with a spectrophotometer (manufactured by Hitachi High-Technologies Corporation, trade name: “U-3900H”). After that, the quartz surface of the UV cell was vertically irradiated with 850 mJ/cm^2 of UV light having a wavelength of 365 nm by using an exposure apparatus (manufactured by Ushio Inc., trade name: “[…]” (ML-251A/B) and optical unit (PM25C-100)), and the absorption spectrum of the solution was measured again. The foregoing operations were repeatedly performed, and a change in absorbance of the solution by UV irradiation was measured. […]
The axis of abscissa of the graph of FIG. 1(A) indicates the measurement wavelength (nm) of an absorption spectrum and the axis of ordinate thereof indicates an absorbance (Abs.) at the wavelength. […]

Take `CCCC1(CCC)c2cc(C(=O)c3ccccc3C)ccc2-c2ccc(/C(C)=N/OC(C)=O)cc21` [Compound 4]: the Decomposition point in data set [1] was determined as 277.0 °C. Also, in data set [2] (in 100 parts by weight of ethyl lactate, room temperature), the “Solubility Ethyl lactate” value is listed as “B (An amount in the range of from 5 parts by weight or more to less than 10 parts by weight of the photopolymerization initiator is dissolved.)”. Also, in data set [2] (in 100 parts by weight of propylene glycol monomethyl ether acetate, room temperature), the “Solubility PGMEA” value is “A (10 Parts by weight or more of the photopolymerization initiator is dissolved.)”. Besides, in data set [2] (in 100 parts by weight of propylene glycol monomethyl ether, room temperature), the “Solubility PGME” value was “B (An amount in the range of from 5 parts by weight or more to less than 10 parts by weight of the photopolymerization initiator is dissolved.)”. In addition, the “solubility (in words)” value in data set [2] (photopolymerization initiator containing the compound) is “additionally excellent solubility”. The “20-μm pattern line width” value is 19.4 in data set [3] (exposure energy quantity 10 mJ/cm^2); 20.0 in data set [3] (exposure energy quantity 20 mJ/cm^2); 21.3 in data set [3] (exposure energy quantity 40 mJ/cm^2); 22.1 in data set [3] (exposure energy quantity 60 mJ/cm^2); 22.4 in data set [3] (exposure energy quantity 80 mJ/cm^2); 19.4 in data set [4] (10 mJ/cm^2). For the same molecule, the “20-μm pattern line width” value came out at 20.0 in data set [4] (20 mJ/cm^2), 21.3 in data set [4] (40 mJ/cm^2), 22.1 in data set [4] (60 mJ/cm^2) and 22.4 in data set [4] (80 mJ/cm^2). The “influence on the coloring by the exposure” value in data set [5] is recorded as “small”.
